ChEMBL document CHEMBL5543147, “Discovery and Characterization of a Novel Cereblon-Recruiting PRC1 Bridged PROTAC Degrader” (J Med Chem, 2024)
pKd: −log10 of the molar value. The source made the active and inactive calls. The calls are words filed in the database; no cut-off is given here.

How the values were obtained:
[1] = target: T1, Protein cereblon/Polycomb complex protein BMI-1 (Homo sapiens, UniProt Q96SW2+P35226); experiment: PROTAC activity at CRBN/BIM1 in human K562 cells assessed as degradation of BMI1 protein expression incubated for 24 hrs by Western blotting analysis; assay type: cell-based
[2] = target: T2, Protein cereblon/E3 ubiquitin-protein ligase RING2 (Homo sapiens, UniProt Q96SW2+Q99496); experiment: PROTAC activity at CRBN/RING1B in human K562 cells assessed as degradation of RING1B protein expression incubated for 24 hrs by Western blotting analysis; assay type: cell-based
[3] = target: Protein cereblon/Polycomb protein SUZ12 (Homo sapiens) (UniProt Q15022+Q96SW2); experiment: PROTAC activity at CRBN/SUZ12 in human K562 cells assessed as degradation of SUZ12 protein expression at 0.1 to 10 uM incubated for 24 hrs by Western blotting analysis; assay type: cell-based; details: dose 0.1-10 µM
[4] = tested on: K562; experiment: Induction of PRC2 degradation in human K562 cells assessed as reduction of H3K27me3 chromatin mark at 0.1 to 10 uM incubated for 24 hrs by Western blotting analysis; assay type: cell-based; details: dose 0.1-10 µM
[5] = tested on: K562; experiment: Induction of PRC1 degradation in human K562 cells assessed as reduction of H2AK119ub chromatin mark at 0.1 to 10 uM incubated for 24 hrs by Western blotting analysis; assay type: cell-based; details: dose 0.1-10 µM
[6] = target: T1, Protein cereblon/Polycomb complex protein BMI-1; experiment: PROTAC activity at […] in human K562 cells assessed as degradation of BMI1 protein expression at 10 uM measured after 4 hrs by Western blotting analysis; assay type: cell-based
Target sequence in this assay (P35226 whole entry, looked up): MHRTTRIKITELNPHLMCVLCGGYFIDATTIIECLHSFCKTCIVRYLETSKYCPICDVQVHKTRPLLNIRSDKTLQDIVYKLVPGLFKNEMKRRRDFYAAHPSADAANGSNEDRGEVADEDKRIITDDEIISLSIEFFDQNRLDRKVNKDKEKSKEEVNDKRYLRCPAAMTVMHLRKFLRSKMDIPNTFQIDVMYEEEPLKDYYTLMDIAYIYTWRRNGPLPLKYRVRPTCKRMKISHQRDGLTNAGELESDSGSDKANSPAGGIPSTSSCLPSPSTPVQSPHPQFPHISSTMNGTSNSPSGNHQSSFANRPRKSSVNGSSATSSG
Target sequence in this assay (Q96SW2 whole entry, looked up): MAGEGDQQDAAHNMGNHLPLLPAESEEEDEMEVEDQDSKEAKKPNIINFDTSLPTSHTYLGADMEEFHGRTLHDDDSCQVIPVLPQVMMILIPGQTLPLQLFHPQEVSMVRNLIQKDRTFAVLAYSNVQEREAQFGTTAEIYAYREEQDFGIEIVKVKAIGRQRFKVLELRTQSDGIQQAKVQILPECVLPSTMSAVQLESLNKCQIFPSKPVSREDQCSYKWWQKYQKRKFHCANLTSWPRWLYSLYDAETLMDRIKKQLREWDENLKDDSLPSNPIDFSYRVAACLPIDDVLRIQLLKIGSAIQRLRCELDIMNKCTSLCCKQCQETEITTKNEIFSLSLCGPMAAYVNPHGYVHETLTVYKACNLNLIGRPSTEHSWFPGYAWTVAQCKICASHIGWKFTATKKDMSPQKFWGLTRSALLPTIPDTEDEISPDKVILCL

[7] = target: T1, Protein cereblon/Polycomb complex protein BMI-1; experiment: PROTAC activity at […] in human K562 cells assessed as degradation of BMI1 protein expression at 10 uM measured after 12 hrs by Western blotting analysis relative to control; assay type: cell-based
Target sequence in this assay (P35226 whole entry, looked up): as the sequence (P35226 whole entry, looked up) above
Target sequence in this assay (Q96SW2 whole entry, looked up): as the sequence (Q96SW2 whole entry, looked up) above

[8] = target: Polycomb protein EED (Homo sapiens, UniProt O75530); experiment: Binding affinity to EED (75 to 441 residues) (unknown origin) expressed in Escherichia coli BL21 (DE3) assessed as dissociation constant by isothermal titration calorimetry
[9] = target: Protein cereblon/YY1-associated factor 2 (Homo sapiens) (UniProt Q96SW2+Q8IY57); experiment: PROTAC activity at CRBN/YAF in human K562 cells assessed as degradation of YAF protein expression at 1 to 10 uM incubated for 24 hrs by Western blotting analysis; assay type: cell-based; details: dose 1-10 µM
[10] = target: Protein cereblon/Chromobox protein homolog 8 (Homo sapiens) (UniProt Q9HC52+Q96SW2); experiment: PROTAC activity at CRBN/CBX8 in human K562 cells assessed as degradation of CBX8 protein expression at 1 to 10 uM incubated for 24 hrs by Western blotting analysis; assay type: cell-based; details: dose 1-10 µM
[11] = target: T1, Protein cereblon/Polycomb complex protein BMI-1; experiment: PROTAC activity at […] in human K562 cells assessed as degradation of BMI1 protein expression at 10 uM incubated for 20 hrs in presence of pomalidomide by Western blotting analysis; assay type: cell-based
Target sequence in this assay (P35226 whole entry, looked up): as the sequence (P35226 whole entry, looked up) above
Target sequence in this assay (Q96SW2 whole entry, looked up): as the sequence (Q96SW2 whole entry, looked up) above

[12] = target: T1, Protein cereblon/Polycomb complex protein BMI-1; experiment: PROTAC activity at […] in human K562 cells assessed as degradation of BMI1 protein expression at 10 uM incubated for 20 hrs in presence of MG132 by Western blotting analysis; assay type: cell-based
Target sequence in this assay (P35226 whole entry, looked up): as the sequence (P35226 whole entry, looked up) above
Target sequence in this assay (Q96SW2 whole entry, looked up): as the sequence (Q96SW2 whole entry, looked up) above

[13] = target: T2, Protein cereblon/E3 ubiquitin-protein ligase RING2; experiment: PROTAC activity at CRBN/RING1B in human K562 cells assessed as degradation of RING1B protein expression at 10 uM incubated for 20 hrs in presence of EED226 by Western blotting analysis; assay type: cell-based
Target sequence in this assay (Q96SW2 whole entry): as the sequence (Q96SW2 whole entry, looked up) above
Target sequence in this assay (Q99496 2-336 partner limits assumed): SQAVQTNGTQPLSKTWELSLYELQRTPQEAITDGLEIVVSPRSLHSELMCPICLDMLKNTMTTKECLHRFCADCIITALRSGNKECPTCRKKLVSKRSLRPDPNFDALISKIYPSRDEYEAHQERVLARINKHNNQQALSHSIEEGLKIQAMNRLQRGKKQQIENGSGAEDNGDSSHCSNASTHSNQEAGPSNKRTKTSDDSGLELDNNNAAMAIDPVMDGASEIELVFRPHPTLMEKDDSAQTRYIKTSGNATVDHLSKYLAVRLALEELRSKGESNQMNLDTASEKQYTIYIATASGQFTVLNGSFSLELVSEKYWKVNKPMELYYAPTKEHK

[14] = target: T2, Protein cereblon/E3 ubiquitin-protein ligase RING2; experiment: PROTAC activity at CRBN/RING1B in human K562 cells assessed as degradation of RING1B protein expression at 10 uM incubated for 20 hrs in presence of MLN4924 by Western blotting analysis; assay type: cell-based
Target sequence in this assay (Q96SW2 whole entry): as the sequence (Q96SW2 whole entry, looked up) above
Target sequence in this assay (Q99496 2-336 partner limits assumed): as the sequence (Q99496 2-336 partner limits assumed) above

[15] = target: Cereblon/Ikaros (Homo sapiens) (UniProt Q96SW2+Q13422); experiment: PROTAC activity at CRBN/IKZF1 in human K562 cells assessed as degradation of IKZF1 protein at 0.1 to 10 uM incubated for 4 hrs by Western blotting analysis; assay type: cell-based; details: dose 0.1-10 µM
[16] = target: Protein cereblon/Eukaryotic peptide chain release factor GTP-binding subunit ERF3A (Homo sapiens) (UniProt Q96SW2+P15170); experiment: PROTAC activity at CRBN/GSPT1 in human K562 cells assessed as degradation of GSPT1 protein at 0.1 to 10 uM incubated for 4 hrs by Western blotting analysis; assay type: cell-based; details: dose 0.1-10 µM
[17] = tested on: K562; experiment: Antiproliferative activity against human K562 cells assessed as cell growth inhibition incubated for 7 days by WST-8 assay; assay type: functional; details: K562, 168 h, time 7 day
[18] = tested on: K562; experiment: Antiproliferative activity against human K562 cells assessed as fold increase in HoxA mRNA expression at 10 uM incubated for 24 hrs by RT-qPCR analysis; assay type: functional
[19] = target: T2, Protein cereblon/E3 ubiquitin-protein ligase RING2; experiment: PROTAC activity at CRBN/RING1B in human 786-0 cells with defective VHL assessed as degradation of RING1B protein expression at 10 uM incubated for 24 hrs by Western blotting analysis; assay type: cell-based
Target sequence in this assay (Q96SW2 whole entry): as the sequence (Q96SW2 whole entry, looked up) above
Target sequence in this assay (Q99496 2-336 partner limits assumed): as the sequence (Q99496 2-336 partner limits assumed) above

[20] = tested on: 786-0; experiment: Induction of PRC1 degradation in human 786-0 cells with defective VHL assessed as reduction of H2AK119ub chromatin mark at 10 uM incubated for 24 hrs by Western blotting analysis; assay type: cell-based
[21] = tested on: 786-0; experiment: Antiproliferative activity against human 786-0 cells assessed as inhibition of cell growth at 15 uM incubated for 7 days by WST-8 assay; assay type: functional, cell-based; details: time 7.0 day
[22] = target: T3, Protein cereblon/Histone-lysine N-methyltransferase EZH2 (Homo sapiens) (UniProt Q15910+Q96SW2); experiment: PROTAC activity at CRBN/EZH2 in human PC-3M cells assessed as degradation of EZH2 protein expression at 0.2 to 5 uM incubated for 24 hrs by Western blotting analysis; assay type: cell-based; details: dose 0.2-5 µM
[23] = target: T1, Protein cereblon/Polycomb complex protein BMI-1; experiment: PROTAC activity at CRBN/BIM1 in human PC-3M cells assessed as degradation of BMI1 protein expression at 1 uM incubated for 24 hrs by Western blotting analysis; assay type: cell-based
Target sequence in this assay (P35226 whole entry, looked up): as the sequence (P35226 whole entry, looked up) above
Target sequence in this assay (Q96SW2 whole entry, looked up): as the sequence (Q96SW2 whole entry, looked up) above

[24] = target: T1, Protein cereblon/Polycomb complex protein BMI-1; experiment: PROTAC activity at CRBN/BIM1 in human PC-3M cells assessed as degradation of BMI1 protein expression at 5 uM incubated for 24 hrs by Western blotting analysis; assay type: cell-based
Target sequence in this assay (P35226 whole entry, looked up): as the sequence (P35226 whole entry, looked up) above
Target sequence in this assay (Q96SW2 whole entry, looked up): as the sequence (Q96SW2 whole entry, looked up) above

[25] = target: T2, Protein cereblon/E3 ubiquitin-protein ligase RING2; experiment: PROTAC activity at CRBN/RING1B in human PC-3M cells assessed as degradation of RING1B protein expression at 5 uM incubated for 24 hrs by Western blotting analysis; assay type: cell-based
Target sequence in this assay (Q96SW2 whole entry): as the sequence (Q96SW2 whole entry, looked up) above
Target sequence in this assay (Q99496 2-336 partner limits assumed): as the sequence (Q99496 2-336 partner limits assumed) above

[26] = tested on: PC-3M; experiment: Induction of PRC1 degradation in human PC-3M cells assessed as reduction of H2AK119ub chromatin mark at 5 uM incubated for 24 hrs by Western blotting analysis; assay type: cell-based
[27] = tested on: PC-3M; experiment: Inhibition of colony formation in human PC-3M cells at 1 to 10 uM incubated for 14 days by crystal violet staining based assay; assay type: functional, cell-based; details: dose 1-10 µM, time 14.0 day
[28] = target: T3, Protein cereblon/Histone-lysine N-methyltransferase EZH2 (Homo sapiens); experiment: PROTAC activity at CRBN/EZH2 in human MDA-MB-468 cells assessed as degradation of EZH2 protein expression at 5 uM incubated for 24 hrs by Western blotting analysis; assay type: cell-based
[29] = tested on: MDA-MB-468; experiment: Induction of PRC2 degradation in human MDA-MB-468 cells assessed as reduction of H3K27me3 chromatin mark at 5 uM incubated for 24 hrs by Western blotting analysis; assay type: cell-based

T3 sequence (Q15910 whole entry, looked up): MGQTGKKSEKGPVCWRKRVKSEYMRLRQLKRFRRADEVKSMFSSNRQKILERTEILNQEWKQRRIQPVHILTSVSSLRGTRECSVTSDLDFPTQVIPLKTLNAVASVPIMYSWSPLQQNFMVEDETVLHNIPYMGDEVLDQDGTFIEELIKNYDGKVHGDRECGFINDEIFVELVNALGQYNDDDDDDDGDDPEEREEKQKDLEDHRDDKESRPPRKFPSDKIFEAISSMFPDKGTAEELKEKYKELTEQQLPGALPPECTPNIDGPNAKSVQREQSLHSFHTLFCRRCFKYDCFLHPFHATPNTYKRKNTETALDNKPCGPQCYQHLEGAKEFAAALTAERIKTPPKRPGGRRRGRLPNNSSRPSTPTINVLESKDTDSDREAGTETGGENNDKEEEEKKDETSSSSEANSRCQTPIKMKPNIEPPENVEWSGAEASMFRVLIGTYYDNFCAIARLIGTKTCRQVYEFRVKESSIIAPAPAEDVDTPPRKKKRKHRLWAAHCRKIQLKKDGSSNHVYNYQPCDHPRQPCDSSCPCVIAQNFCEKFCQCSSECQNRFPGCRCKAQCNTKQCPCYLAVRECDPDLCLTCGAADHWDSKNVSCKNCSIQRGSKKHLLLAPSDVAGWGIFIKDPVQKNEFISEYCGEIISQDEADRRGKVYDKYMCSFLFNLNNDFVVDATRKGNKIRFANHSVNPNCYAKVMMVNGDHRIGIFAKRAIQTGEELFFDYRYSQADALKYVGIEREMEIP
T3 sequence (Q96SW2 whole entry, looked up): as the sequence (Q96SW2 whole entry, looked up) above
Chain of Protein cereblon/Chromobox protein homolog 8 (Homo sapiens) (Q96SW2 whole entry, looked up): as above
Chain of Protein cereblon/Chromobox protein homolog 8 (Homo sapiens) (Q9HC52 whole entry, looked up): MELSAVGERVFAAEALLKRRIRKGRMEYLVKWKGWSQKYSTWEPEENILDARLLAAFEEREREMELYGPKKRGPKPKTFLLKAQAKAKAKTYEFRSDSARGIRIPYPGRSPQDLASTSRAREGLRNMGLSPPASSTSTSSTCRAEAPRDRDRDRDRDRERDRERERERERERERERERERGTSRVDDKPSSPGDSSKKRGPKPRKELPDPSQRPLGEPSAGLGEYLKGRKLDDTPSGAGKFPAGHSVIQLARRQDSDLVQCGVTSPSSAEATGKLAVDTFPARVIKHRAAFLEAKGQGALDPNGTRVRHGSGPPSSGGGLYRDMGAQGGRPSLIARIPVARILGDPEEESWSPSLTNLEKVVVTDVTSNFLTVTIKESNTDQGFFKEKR
Chain of Protein cereblon/YY1-associated factor 2 (Homo sapiens) (Q8IY57 whole entry, looked up): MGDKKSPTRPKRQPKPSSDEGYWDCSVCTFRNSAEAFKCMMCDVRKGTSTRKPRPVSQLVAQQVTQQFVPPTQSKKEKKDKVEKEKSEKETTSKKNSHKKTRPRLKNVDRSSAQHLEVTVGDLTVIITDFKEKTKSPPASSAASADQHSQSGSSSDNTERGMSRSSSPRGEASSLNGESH
Chain of Protein cereblon/YY1-associated factor 2 (Homo sapiens) (Q96SW2 whole entry, looked up): as the sequence (Q96SW2 whole entry, looked up) above

- DC50 [1]: 1.7 µM
- DC50 [2]: 1.3 µM
- Activity [3]: Active
- Activity [6]: Active
- Activity [7]: 100%
- pKd [8]: 6.72
- Activity [9]: inactive
- Activity [10]: inactive
- Activity [11]: inactive
- Activity [12]: inactive
- Activity [13]: inactive
- Activity [14]: inactive
- Activity [15]: inactive
- Activity [16]: inactive
- GI50 [17]: 3.7 µM
- Activity [19]: Active
- Activity [22]: inactive
- Activity [23]: Active
- Activity [24]: Active
- Activity [25]: Active
- Activity [28]: inactive
SMILES: O=C(CNc1cccc2c1C(=O)N(C1CCC(=O)NC1=O)C2=O)NCCCCN1CCN(c2ccc(-c3cnc(NCc4ccco4)n4cnnc34)cc2)CC1 (centres undefined)
- Activity [4]: Active
- Activity [5]: Active
- fold change (FC) [18]: 3.1
- Activity [20]: Active
- Activity [21]: Active
- Activity [26]: Active
- inhibition [27]: Active
- Activity [29]: inactive
